Data on 7 compounds can be found in ChEMBL document CHEMBL1135594 (J Med Chem, 2002).

Test [1] concerns Plasmodium falciparum. The test can be described thus: microbe, parasite or virus in culture.
Test [2] addresses T1, Histidine-rich protein PFHRP-II (Plasmodium falciparum, UniProt P05227).
T1 sequence (P05227 whole entry): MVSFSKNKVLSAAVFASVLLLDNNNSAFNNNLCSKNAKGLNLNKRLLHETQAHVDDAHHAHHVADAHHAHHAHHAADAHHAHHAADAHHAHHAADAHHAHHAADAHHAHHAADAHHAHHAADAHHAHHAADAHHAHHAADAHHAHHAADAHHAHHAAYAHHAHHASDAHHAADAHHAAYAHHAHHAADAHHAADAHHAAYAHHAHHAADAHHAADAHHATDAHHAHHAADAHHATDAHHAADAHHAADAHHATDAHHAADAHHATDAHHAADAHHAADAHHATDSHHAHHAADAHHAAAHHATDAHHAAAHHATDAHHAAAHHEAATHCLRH
The test can be described thus: Inhibition of beta-hematin formation. It counts as functional.

In test [3] the test system is Plasmodium falciparum. As to the kind of experiment: microbe, parasite or virus in culture. This is another data set of the same source.
In test [4] the test system is Plasmodium falciparum. The test can be described thus: microbe, parasite or virus in culture. This is another data set of the same source.
In test [5] the test system is Plasmodium falciparum. The test can be described thus: microbe, parasite or virus in culture. The source holds these as a separate data set.
A short description of test [6]: Resistance factor as the ratio of IC50 against Plasmodium falciparum K1 to that of Plasmodium falciparum HB3. It counts as functional.
Test [7] concerns Plasmodium falciparum. As to the kind of experiment: Displacement of chloroquine from Fe(3+) FPIX-loaded membrane. It counts as functional.
In test [8] the test system is Plasmodium falciparum. The test can be described thus: Inhibition of chloroquine uptake from intact parasites; Not active. Type of test: functional, organism-based.

Molecules are shown by their SMILES. Activity calls are given as the source filed them. The rule behind the calls is not given here.

As usually defined, the IC50 is the concentration that gives 50% inhibition. For the compound `FC(F)(F)c1ccc2c(NCCN3CCCCC3)ccnc2c1`, the half-inhibitory concentration (IC50) with Plasmodium falciparum [1] amounted to 8390 nM; in test [2] it was 65000 nM; with Plasmodium falciparum [3] it was 22.2 nM; with Plasmodium falciparum [4], 2030 nM; with Plasmodium falciparum [5], 10.6 nM. Besides, the Resistance factor in test [6] stood at 2.09.
As for `CC(C)(C)NCCNc1ccnc2cc(C(F)(F)F)ccc12`, the IC50 in the test on Plasmodium falciparum [7] came out at 4960 nM; in test [2], 71000 nM; in the test on Plasmodium falciparum [3], 9.8 nM; in the test on Plasmodium falciparum [4], 2090 nM; with Plasmodium falciparum [5] it was 5.5 nM. Also, the Resistance factor in test [6] was 1.78.
As for `Clc1ccc2c(NCCN3CCOCC3)ccnc2c1`, the half-maximal inhibitory concentration (IC50) with Plasmodium falciparum [1] worked out at 24900 nM; in test [2], 102000 nM; in the test on Plasmodium falciparum [3] it was 240 nM; with Plasmodium falciparum [5], 150 nM. The NA entry in the test with Plasmodium falciparum [8] is “inactive”.
For the compound `CC(C)(C)NCCNc1ccnc2cc(Cl)ccc12`, the IC50 came out at 3940 nM in the test with Plasmodium falciparum [1]; 70000 nM in test [2]; 15.3 nM in the test with Plasmodium falciparum [3]; 710 nM in the test on Plasmodium falciparum [4]; 4.3 nM in the test on Plasmodium falciparum [5].
On the same counts, the results for `Clc1ccc2c(NCCN3CCCCC3)ccnc2c1` are 7650 nM, 86000 nM, 13 nM, 910 nM and 6.8 nM.
Turning to `Clc1ccc2c(NCCN3CCCC3)ccnc2c1`, the half-inhibitory concentration (IC50) amounted to 5940 nM in the test on Plasmodium falciparum [1]; 78000 nM in test [2]; 13.2 nM in the test with Plasmodium falciparum [3]; 1620 nM in the test with Plasmodium falciparum [4]; 6.8 nM with Plasmodium falciparum [5].
As for `CCN(CC)CCCC(C)Nc1ccnc2cc(Cl)ccc12` (stereo not drawn), in test [6], the Resistance factor amounted to 10.
